This note sets out measurements from ChEMBL document CHEMBL4382194, “New Modalities, Technologies, and Partnerships in Probe and Lead Generation: Enabling a Mode-of-Action Centric Paradigm” (J Med Chem, 2018).

A word on the EC50: it is the concentration needed to bring the measured effect to its halfway point. As a reminder, the Kd is the concentration at which binding is half-saturated. A low value points to a tighter complex.

The structures appear in SMILES notation. Numbered stars: 1 amine (or outer) side, 2 acyl side, 3 side chain; on linkers, the order of the positions; unused ones are H or OH. Bridge positions count the residues as written; N and C are the ends. Peptide text beside a SMILES is read from it. TBMB = c1c(C[*:1])cc(C[*:3])cc1C[*:2]

For one test, the target named is 80S Ribosome. Kind of test: Inhibition of human 80S ribosome-mediated PCSK9 translation expressed in CHO-K1 cells assessed as reduction in PCSK9 secretion. The test is classed as cell-based.
The species named for test [1] is Homo sapiens. The test can be described thus: Selectivity ratio of Ki for human MC1R expressed in HEK cell membranes to Ki for human MC4R expressed in HEK cell membranes. The class given is cell-based.
The species named for test [2] is Homo sapiens. The test can be described thus: Selectivity ratio of Ki for human MC2R expressed in HEK cell membranes to Ki for human MC4R expressed in HEK cell membranes. The test is classed as cell-based.
The species entered for test [3] is Homo sapiens. The test can be described thus: Selectivity ratio of Ki for human MC5R expressed in HEK cell membranes to Ki for human MC4R expressed in HEK cell membranes. The class given is cell-based.
Test [4] can be described thus: Modulation of full length SMN2 mRNA (unknown origin) splicing by luciferase reporter gene assay. The arrangement: species or system Homo sapiens. On the technique in general: A reporter such as luciferase makes a cellular process visible.
Another test addresses Plasma kallikrein (Homo sapiens, UniProt P03952). The test can be described thus: Binding affinity to human plasma kallikrein.
In test [5] the target is T1, Epidermal growth factor receptor substrate 15 (Homo sapiens, UniProt P42566).
T1 sequence (P42566 whole entry): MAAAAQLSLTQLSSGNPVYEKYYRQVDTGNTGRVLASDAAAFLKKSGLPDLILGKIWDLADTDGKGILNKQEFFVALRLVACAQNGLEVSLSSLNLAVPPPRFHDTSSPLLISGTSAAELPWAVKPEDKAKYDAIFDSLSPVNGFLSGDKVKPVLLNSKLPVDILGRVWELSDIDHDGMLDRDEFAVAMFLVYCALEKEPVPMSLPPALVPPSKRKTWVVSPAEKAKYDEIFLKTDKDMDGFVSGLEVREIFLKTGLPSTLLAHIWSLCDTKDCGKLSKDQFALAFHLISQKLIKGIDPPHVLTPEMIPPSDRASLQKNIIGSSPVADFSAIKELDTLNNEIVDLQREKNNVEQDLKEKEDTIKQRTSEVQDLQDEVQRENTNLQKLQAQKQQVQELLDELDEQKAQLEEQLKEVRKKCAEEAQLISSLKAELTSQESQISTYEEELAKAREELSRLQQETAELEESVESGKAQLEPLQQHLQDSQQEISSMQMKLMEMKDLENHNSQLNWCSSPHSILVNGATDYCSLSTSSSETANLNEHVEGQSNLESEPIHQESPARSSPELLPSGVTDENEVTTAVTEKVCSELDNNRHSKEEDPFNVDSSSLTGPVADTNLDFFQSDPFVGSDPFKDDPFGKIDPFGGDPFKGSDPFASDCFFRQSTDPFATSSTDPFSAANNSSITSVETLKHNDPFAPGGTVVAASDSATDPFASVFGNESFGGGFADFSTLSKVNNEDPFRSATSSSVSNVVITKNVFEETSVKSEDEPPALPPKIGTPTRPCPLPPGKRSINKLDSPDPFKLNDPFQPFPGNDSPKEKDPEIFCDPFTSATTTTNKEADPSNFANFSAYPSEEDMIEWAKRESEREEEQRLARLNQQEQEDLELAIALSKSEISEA
The test can be described thus: Inhibition of stonin-2 binding to Eps15 (unknown origin).

Sequence of Plasma kallikrein (P03952 20-390 limits assumed): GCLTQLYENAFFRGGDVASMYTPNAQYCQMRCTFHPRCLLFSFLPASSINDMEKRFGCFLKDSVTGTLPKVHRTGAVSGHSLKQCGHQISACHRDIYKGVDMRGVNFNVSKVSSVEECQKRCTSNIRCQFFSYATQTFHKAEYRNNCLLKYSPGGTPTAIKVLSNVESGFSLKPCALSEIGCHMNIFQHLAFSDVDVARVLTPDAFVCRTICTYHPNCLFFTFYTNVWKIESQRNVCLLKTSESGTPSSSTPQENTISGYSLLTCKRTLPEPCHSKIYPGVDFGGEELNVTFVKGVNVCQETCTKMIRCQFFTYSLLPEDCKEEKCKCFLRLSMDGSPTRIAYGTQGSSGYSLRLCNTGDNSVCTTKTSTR
Sequence of Plasma kallikrein (P03952 391-638 limits assumed): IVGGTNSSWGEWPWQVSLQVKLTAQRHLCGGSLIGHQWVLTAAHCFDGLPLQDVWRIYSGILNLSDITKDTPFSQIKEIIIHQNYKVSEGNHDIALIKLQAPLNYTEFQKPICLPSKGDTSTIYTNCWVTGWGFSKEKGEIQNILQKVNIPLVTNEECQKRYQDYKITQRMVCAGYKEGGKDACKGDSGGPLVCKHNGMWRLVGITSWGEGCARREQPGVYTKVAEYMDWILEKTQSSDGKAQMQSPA

For the compound `COc1ccc(CCC(=O)N(c2nccc3c2CC=CC3)[C@@H]2CCCNC2)cc1`, the EC50 on 80S Ribosome amounted to 2200 nM.

For the compound `CC(C)C[C@@H]1NC(=O)CNC(=O)[C@H](CC(N)=O)NC(=O)[C@H](CCCNC(=N)N)NC(=O)[C@H]([C@@H](C)O)NC(=O)[C@@H]2CSSC[C@@H]3NC(=O)[C@H]([C@@H](C)O)NC(=O)CNC(=O)CNC(=O)[C@H](C(C)C)NC(=O)[C@@H]4CSSC[C@H](NC(=O)[C@H]([C@@H](C)O)NC(=O)[C@H](CSSC[C@H](NC(=O)[C@H](C(C)C)NC(=O)[C@@H]5CCCN5C1=O)C(=O)NCC(=O)N[C@@H](CCC(=O)O)C(=O)N[C@@H]([C@@H](C)O)C(=O)N4)NC(=O)CNC(=O)[C@@H]1CCCN1C(=O)[C@H]([C@@H](C)O)NC(=O)[C@H](CC(N)=O)NC3=O)C(=O)N[C@@H](CO)C(=O)N[C@@H](Cc1c[nH]c3ccccc13)C(=O)N1CCC[C@H]1C(=O)N[C@@H](C(C)C)C(=O)N2`, the Ratio Ki in the test listed under Homo sapiens [1], in the test filed under Homo sapiens [2] and in the test filed under Homo sapiens [3] was 100 to 300 in each case.

The compound `CN(c1ccc(-c2ccc(-c3cn[nH]c3)cc2O)nn1)C1CC(C)(C)NC(C)(C)C1` yielded an EC50 in test [4] of 5 nM.

`CC(C)C[C@@H]1NC(=O)[C@H](C)NC(=O)[C@H](CCC(=O)O)NC(=O)[C@H](CC(=O)O)NC(=O)[C@H](C)NC(=O)[C@@H]2CCCN2C(=O)[C@@H]2CSCc3cc(cc(c3)CSC[C@@H](C(=O)NCC(=O)O)NC1=O)CSC[C@H](NC(=O)[C@H](C)N)C(=O)N[C@@H](CO)C(=O)N[C@@H](CC(=O)O)C(=O)N[C@@H](CCCNC(=N)N)C(=O)N[C@@H](Cc1ccccc1)C(=O)N[C@@H](CCCNC(=N)N)C(=O)N[C@@H](CC(N)=O)C(=O)N2` (H-ACSDRFRNCPADEALCG-OH; linker 2-9-16 via TBMB): binding on Plasma kallikrein was characterised by a dissociation constant (Kd) of 20 nM.

The compound `C[C@@H]1NC(=O)[C@H](CCCNC(=N)N)NC(=O)[C@H](Cc2c[nH]c3ccccc23)NC(=O)[C@@H]2CCCN2C(=O)[C@H](N)CSCc2cccc(c2)CSC[C@@H](C(=O)O)NC(=O)[C@H](Cc2ccccc2)NC(=O)[C@@H]2CCCN2C(=O)[C@H](CC(N)=O)NC(=O)[C@H]([C@@H](C)O)NC1=O` registered a Kd in test [5] of 370 nM.
